The IC50 is the concentration that gives 50% inhibition. In general, melting point refers to the temperature of the solid-liquid transition.

One data set has as its system sodium channel. The experiment in a line: Guanidine influx assay (in vitro). It counts as cell-based, human or rat. Conditions: known cell line that expresses a sodium channel; read-out: IC50 Activity Level. From the text:
This example describes an in vitro assay for testing and profiling test agents against human or rat sodium channels stably expressed in cells of either an endogenous or recombinant origin. The assay is also useful for determining the IC-50 of a sodium channel blocking compound. The assay is based on the guanidine flux assay described by Reddy, N. L., et al., J Med Chem (1998), 41(17):3298-302.
The guanidine influx assay is a radiotracer flux assay used to determine ion flux activity of sodium channels in a high-throughput microplate-based format. The assay uses ^14C-guanidine hydrochloride in combination with various known sodium channel modulators, to assay the potency of test agents. Potency is determined by an IC-50 calculation. Selectivity is determined by comparing potency of the compound for the channel of interest to its potency against other sodium channels (also called ‘selectivity profiling’).
Each of the test agents is assayed against cells that express the channels of interest. Voltage gated sodium channels are either TTX sensitive or insensitive. This property is useful when evaluating the activities of a channel of interest when it resides in a mixed population with other sodium channels. The following Table 1 summarizes cell lines useful in screening for a certain channel activity in the presence or absence of TTX.
Cells expressing the channel of interest are grown according to the supplier or in the case of a recombinant cell in the presence of selective growth media such as G418 (Gibco/Invitrogen). The cells are disassociated from the culture dishes with an enzymatic solution (1×) Trypsin/EDTA (Gibco/Invitrogen) and analyzed for density and viability using haemocytometer (Neubauer). Disassociated cells are washed and resuspended in their culture media then plated into Scintiplates (Beckman Coulter Inc.) (approximately 100,000 cells/well) and incubated at 37° C./5% CO2 for 20-24 hours. After an extensive wash with Low sodium HEPES-buffered saline solution (LNHBSS) (150 mM Choline Chloride, […] (Sigma), 1 mM Calcium Chloride, 5 mM Potassium Chloride, 1 mM Magnesium Chloride, 10 mM Glucose) agents diluted with LNHBSS are added to each well. (Varying concentrations of test agent may be used). The activation/radiolabel mixture contains aconitine (Sigma), and ^14C-guanidine hydrochloride (ARC).
After loading the cells with test agent and activation/radiolabel mixture, the Scintiplates are incubated at ambient temperature. Following the incubation, the Scintplates are extensively washed with LNHBSS supplemented with guanidine (Sigma). The Scintiplates are dried and then counted using a Wallac MicroBeta TriLux (Perkin-Elmer Life Sciences). The ability of the test agent to block sodium channel activity is determined by comparing the amount of ^14C-guanidine present inside the cells expressing the different sodium channels.
IC-50 value of a test agent for a specific sodium channel may be determined using the above general method. IC-50 may be determined using a 3, 8, 10, 12 or 16 point curve in duplicate or triplicate with a starting concentration of 1, 5 or 10 μM diluted serially with a final concentration reaching the sub-nanomolar, nanomolar and low micromolar ranges. Typically the mid-point concentration of test agent is set at 1 μM, and sequential concentrations of half dilutions greater or smaller are applied (e.g. 0.5 μM; 5 μM and 0.25 μM; 10 μM and 0.125 μM; 20 μM etc.). The IC-50 curve is calculated using the 4 Parameter Logistic Model or Sigmoidal Dose-Response Model formula (fit=(A+((B−A)/(1+((C/×)̂ D)))).
The Synthetic Example numbers provided in Table 2 correspond to the Synthetic Examples herein: […]

The next data set addresses SK-N-BE2C (NaV1.8) (Homo sapiens, UniProt Q9Y5Y9). It counts as cell-based.
Another data set concerns the target PC12 (Nav1.2) (Rattus norvegicus, UniProt P04775).
The subject of the next data set is L6 (Nav1.4 and 1.5). It counts as cell-based, rat.
For another data set, the system named is CHO-K1 (Nav1.4). It counts as cell-based, Chinese Hamster.

PC12 (Nav1.2), sequence (P04775 whole entry, looked up): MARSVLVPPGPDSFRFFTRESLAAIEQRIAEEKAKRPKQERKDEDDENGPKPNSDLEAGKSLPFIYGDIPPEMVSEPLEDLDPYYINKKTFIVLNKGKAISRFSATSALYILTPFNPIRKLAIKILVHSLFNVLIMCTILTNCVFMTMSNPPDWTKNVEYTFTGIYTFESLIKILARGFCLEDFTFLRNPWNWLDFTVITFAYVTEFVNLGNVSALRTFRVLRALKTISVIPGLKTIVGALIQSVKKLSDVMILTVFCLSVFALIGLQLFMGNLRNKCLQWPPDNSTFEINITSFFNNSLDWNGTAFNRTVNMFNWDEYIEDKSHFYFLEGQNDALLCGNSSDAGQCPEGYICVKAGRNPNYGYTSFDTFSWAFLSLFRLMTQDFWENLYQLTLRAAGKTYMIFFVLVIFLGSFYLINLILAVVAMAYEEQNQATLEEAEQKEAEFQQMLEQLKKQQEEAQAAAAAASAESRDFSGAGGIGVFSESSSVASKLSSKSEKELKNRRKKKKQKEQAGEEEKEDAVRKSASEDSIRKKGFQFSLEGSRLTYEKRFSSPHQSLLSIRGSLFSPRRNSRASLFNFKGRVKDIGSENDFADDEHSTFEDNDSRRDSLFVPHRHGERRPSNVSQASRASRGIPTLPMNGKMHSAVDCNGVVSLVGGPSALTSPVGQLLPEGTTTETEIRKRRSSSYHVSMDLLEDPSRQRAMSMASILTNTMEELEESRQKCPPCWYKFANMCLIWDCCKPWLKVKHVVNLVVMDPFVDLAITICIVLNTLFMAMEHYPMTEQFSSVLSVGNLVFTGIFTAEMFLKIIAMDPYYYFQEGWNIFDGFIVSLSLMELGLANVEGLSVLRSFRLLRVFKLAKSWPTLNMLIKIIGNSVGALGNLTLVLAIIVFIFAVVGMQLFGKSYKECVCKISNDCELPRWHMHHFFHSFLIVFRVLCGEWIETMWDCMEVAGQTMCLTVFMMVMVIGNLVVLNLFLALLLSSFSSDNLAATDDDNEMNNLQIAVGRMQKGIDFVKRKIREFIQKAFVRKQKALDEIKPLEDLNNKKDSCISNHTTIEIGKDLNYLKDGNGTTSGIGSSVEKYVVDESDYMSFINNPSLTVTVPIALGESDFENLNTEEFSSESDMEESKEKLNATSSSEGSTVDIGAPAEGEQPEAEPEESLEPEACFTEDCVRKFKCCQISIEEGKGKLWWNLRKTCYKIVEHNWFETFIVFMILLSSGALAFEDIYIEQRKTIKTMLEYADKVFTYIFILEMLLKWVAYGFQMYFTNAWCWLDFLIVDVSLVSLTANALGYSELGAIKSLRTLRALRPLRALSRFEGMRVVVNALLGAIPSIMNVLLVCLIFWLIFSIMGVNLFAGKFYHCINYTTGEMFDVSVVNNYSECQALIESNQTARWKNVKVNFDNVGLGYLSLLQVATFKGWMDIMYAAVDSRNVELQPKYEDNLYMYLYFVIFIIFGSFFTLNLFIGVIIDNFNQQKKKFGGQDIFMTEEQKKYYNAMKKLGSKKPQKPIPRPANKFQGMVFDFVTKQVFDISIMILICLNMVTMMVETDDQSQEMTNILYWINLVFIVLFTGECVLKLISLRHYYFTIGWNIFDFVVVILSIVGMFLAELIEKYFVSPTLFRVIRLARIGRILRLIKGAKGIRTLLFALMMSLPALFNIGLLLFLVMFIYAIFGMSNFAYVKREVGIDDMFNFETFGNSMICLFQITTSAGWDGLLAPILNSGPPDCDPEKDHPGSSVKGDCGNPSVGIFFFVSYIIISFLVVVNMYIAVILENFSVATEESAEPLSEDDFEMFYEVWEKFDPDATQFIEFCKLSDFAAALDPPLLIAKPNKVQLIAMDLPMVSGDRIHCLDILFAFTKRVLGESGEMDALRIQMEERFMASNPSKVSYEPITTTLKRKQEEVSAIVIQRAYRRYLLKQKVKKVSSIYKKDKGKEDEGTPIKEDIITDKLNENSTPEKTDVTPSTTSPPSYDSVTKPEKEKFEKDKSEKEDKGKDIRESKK
SK-N-BE2C (NaV1.8), sequence (Q9Y5Y9 whole entry, looked up): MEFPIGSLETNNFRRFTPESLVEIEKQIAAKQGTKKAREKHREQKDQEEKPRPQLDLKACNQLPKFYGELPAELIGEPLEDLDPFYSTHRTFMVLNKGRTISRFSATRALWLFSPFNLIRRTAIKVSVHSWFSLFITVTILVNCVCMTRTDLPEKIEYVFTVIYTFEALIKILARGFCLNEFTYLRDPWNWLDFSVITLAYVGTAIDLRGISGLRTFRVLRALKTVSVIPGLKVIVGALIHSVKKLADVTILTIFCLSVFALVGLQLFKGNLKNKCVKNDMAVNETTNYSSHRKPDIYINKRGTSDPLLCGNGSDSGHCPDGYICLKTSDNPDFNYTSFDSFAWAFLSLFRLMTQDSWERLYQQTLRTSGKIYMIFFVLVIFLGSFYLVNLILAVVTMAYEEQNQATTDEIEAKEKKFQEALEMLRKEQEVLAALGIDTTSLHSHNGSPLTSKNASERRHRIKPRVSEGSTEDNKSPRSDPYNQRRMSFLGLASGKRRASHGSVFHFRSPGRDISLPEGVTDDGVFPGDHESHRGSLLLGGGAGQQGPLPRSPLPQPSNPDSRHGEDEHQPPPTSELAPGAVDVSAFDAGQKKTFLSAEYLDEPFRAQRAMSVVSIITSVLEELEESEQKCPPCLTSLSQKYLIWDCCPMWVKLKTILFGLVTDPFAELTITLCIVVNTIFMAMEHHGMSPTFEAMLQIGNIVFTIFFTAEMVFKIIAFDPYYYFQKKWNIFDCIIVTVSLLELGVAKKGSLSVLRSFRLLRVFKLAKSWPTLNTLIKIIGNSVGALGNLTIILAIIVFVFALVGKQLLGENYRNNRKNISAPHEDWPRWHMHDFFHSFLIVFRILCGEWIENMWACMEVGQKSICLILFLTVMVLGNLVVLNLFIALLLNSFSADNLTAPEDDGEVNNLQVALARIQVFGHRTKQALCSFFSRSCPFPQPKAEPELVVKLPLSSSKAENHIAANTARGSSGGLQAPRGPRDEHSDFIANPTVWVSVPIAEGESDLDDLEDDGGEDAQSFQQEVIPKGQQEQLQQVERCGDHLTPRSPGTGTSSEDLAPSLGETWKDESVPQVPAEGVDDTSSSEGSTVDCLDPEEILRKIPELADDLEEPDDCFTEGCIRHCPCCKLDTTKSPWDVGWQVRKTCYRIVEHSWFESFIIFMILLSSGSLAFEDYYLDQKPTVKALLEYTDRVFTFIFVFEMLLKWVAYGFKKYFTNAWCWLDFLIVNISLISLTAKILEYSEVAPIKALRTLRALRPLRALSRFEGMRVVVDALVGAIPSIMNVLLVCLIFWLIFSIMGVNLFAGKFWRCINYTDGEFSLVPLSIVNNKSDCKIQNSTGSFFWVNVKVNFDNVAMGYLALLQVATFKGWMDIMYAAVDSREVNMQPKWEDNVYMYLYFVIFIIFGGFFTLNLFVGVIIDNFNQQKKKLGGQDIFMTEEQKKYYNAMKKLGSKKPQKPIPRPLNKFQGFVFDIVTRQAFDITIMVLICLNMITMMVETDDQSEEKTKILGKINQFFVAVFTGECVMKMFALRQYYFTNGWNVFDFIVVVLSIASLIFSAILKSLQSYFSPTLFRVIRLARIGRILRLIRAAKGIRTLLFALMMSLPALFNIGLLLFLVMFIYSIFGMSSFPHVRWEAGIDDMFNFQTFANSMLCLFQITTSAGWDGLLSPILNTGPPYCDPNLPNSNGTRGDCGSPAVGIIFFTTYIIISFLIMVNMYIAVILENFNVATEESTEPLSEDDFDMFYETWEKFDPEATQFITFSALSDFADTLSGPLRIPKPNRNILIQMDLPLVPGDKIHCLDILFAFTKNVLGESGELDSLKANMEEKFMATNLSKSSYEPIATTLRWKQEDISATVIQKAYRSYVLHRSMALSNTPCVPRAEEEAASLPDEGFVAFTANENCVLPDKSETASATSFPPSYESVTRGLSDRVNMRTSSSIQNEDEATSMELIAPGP

Turning to `CCCCCN1C(=O)C2(COc3ccncc32)c2ccccc21` (stereo not shown) [Example 1], the IC50 with sodium channel was 100 to 1000 nM.

For `CCCCCN1C(=O)C2(COc3ccncc32)c2ccccc21` (stereo not shown) [Example 2], the IC50 in the data set with sodium channel is not below 1000 nM.

Take `CCCCCN1C(=O)C2(COc3cc[nH]c(=O)c32)c2ccccc21` (stereo not shown) [Example 3]: the IC50 in the data set on sodium channel was not below 1000 nM.

Turning to `COc1ccc2c(n1)C1(CO2)C(=O)N(Cc2ccc(C(F)(F)F)o2)c2cccc(Br)c21` (stereo not shown) [Example 4], the IC50 in the data set on sodium channel lay in the range of 10 to 100 nM.

For `COc1ccc2c(n1)C1(CO2)C(=O)N(Cc2ccc(C(F)(F)F)o2)c2ccccc21` (stereo not shown) [Example 5], the IC50 in the data set with sodium channel is 100 to 1000 nM.

`O=C1N(Cc2ccc(C(F)(F)F)o2)c2ccccc2C12COc1cc3c(nc12)OCO3` (stereo not shown) [Example 8]: in the data set on sodium channel, the IC50 was in the range of 1 to 10 nM.

Consider `COc1ccc2c(n1)C1(CO2)C(=O)N(Cc2ccc(C(F)(F)F)o2)c2ccc(F)cc21` (stereo not shown) [Example 10], for which the IC50 in the data set on sodium channel was not below 1000 nM.

Consider `COc1ccc2c(n1)C1(CO2)C(=O)N(Cc2ccc(C(F)(F)F)o2)c2cccc(Cl)c21` (stereo not shown) [Example 11], for which the IC50 in the data set on sodium channel is 100 to 1000 nM.

`COc1ccc2c(n1)C1(CO2)C(=O)Nc2cccc(Br)c21` (stereo not shown) [Example 12]: the IC50 in the data set with sodium channel was in the range of 100 to 1000 nM.

In the case of `COc1ccc2c(n1)C1(CO2)C(=O)Nc2ccccc21` (stereo not shown) [Example 13], the melting point fell in the range of 199 to 200 °C. In addition, the IC50 in the data set on sodium channel was not below 1000 nM.

As for `COc1ccc2c(n1)C1(CO2)C(=O)N(Cc2ccc(Cl)s2)c2ccccc21` (stereo not shown) [Example 15], the IC50 with sodium channel was in the range of 10 to 100 nM.

`COc1ccc2c(n1)C1(CO2)C(=O)N(Cc2csc(C(C)C)n2)c2ccccc21` (stereo not shown) [Example 16] yielded a melting point of 136 to 138 °C. For the same molecule, the IC50 in the data set with sodium channel lay within 10 to 100 nM.

For the molecule `COc1ccc2c(n1)C1(CO2)C(=O)N(Cc2ccccn2)c2ccccc21` (stereo not shown) [Example 17], the IC50 in the data set with sodium channel was 100 to 1000 nM.

For the molecule `COc1ccc2c(n1)C1(CO2)C(=O)N(CC(=O)Nc2ccccc2F)c2ccccc21` (stereo not shown) [Example 18], the IC50 with sodium channel is 100 to 1000 nM.

In turn, `COc1ccc2c(n1)C1(CO2)C(=O)N(Cc2ncc(Cl)n2C)c2ccccc21` (stereo not shown) [Example 19] registered a melting point of 169 to 171 °C. Also, the IC50 with sodium channel lay within 100 to 1000 nM.

For `COc1ccc2c(n1)C1(CO2)C(=O)N(CC2CCN(C)CC2)c2ccccc21` (stereo not shown) [Example 22], the melting point is 58 to 62 °C. In addition, the IC50 in the data set on sodium channel is not below 1000 nM.

For the molecule `COc1cc2c(cn1)OCC21C(=O)N(Cc2ccc(C(F)(F)F)o2)c2ccccc21` (stereo not shown) [Example 23], the IC50 with sodium channel was in the range of 1 to 10 nM.

Turning to `COc1cc2c(cn1)OCC21C(=O)N(C(c2ccccc2)c2ccccc2)c2ccccc21` (stereo not shown) [Example 24], the IC50 with sodium channel is not below 1000 nM.

Take `COc1cc2c(cn1)OCC21C(=O)Nc2ccccc21` (stereo not shown) [Example 25]: the IC50 in the data set on sodium channel was in the range of 100 to 1000 nM.

Take `COc1cc2c(cn1)OCC21C(=O)N(CC2CCOCC2)c2ccccc21` (stereo not shown) [Example 26]: in the data set with sodium channel, the IC50 lay in the range of 100 to 1000 nM.

In the case of `COc1cc2c(cn1)OCC21C(=O)N(C[C@@H]2CCCO2)c2ccccc21` (stereo partly shown) [Example 27], the IC50 in the data set with sodium channel fell in the range of 10 to 100 nM.

In the case of `COc1cc2c(cn1)OCC21C(=O)N(C[C@H]2CCCO2)c2ccccc21` (stereo partly shown) [Example 28], in the data set with sodium channel, the IC50 lay within 10 to 100 nM.

For `COc1ccc2c(n1)C1(CO2)C(=O)N(Cc2ccc(C(F)(F)F)o2)c2ccccc21` (stereo not shown) [Synthetic Example 5, 5-methoxy-1′-{[5-(trifluoromethyl)-2-furyl]methyl}spiro[furo[3,2-b]pyridine-3,3′-indol]-2′(1′H)-one], the melting point lay in the range of 145 to 147 °C.

In the case of `O=C1N(Cc2ccc(C(F)(F)F)o2)c2ccccc2C12COc1ccc(=O)[nH]c12` (stereo not shown) [Synthetic Example 7, 1′-{[5-(trifluoromethyl)-2-furyl]methyl}spiro[furo[3,2-b]pyridine-3,3′-indole]-2′,5(1′H,4H)-dione], the melting point is 175 to 177 °C.

In turn, `O=C1N(Cc2ccc(C(F)(F)F)o2)c2ccccc2C12COc1cc3c(nc12)OCO3` (stereo not shown) [Synthetic Example 8, 1′-{[5-(trifluoromethyl)-2-furyl]methyl}spiro[1,3-dioxolo[4,5-b]furo[2,3-e]pyridine-5,3′-indol]-2′(1′H)-one] registered a melting point of 175 to 177 °C.

`COc1ccc2c(n1)C1(CO2)C(=O)N(Cc2ccc(C(F)(F)F)o2)c2ccc(F)cc21` (stereo not shown) [Synthetic Example 10, 5′-fluoro-5-methoxy-1′-{[5-(trifluoromethyl)-2-furyl]methyl}spiro[furo[3,2-b]pyridine-3,3′-indol]-2′(1′H)-one]: the melting point was 158 to 160 °C.

As for `COc1ccc2c(n1)C1(CO2)C(=O)Nc2cccc(Br)c21` (stereo not shown) [Synthetic Example 12, 4′-bromo-5-methoxyspiro[furo[3,2-b]pyridine-3,3′-indol]-2′(1′H)-one], the melting point was in the range of 265 to 268 °C.

In the case of `COc1cc2c(cn1)OCC21C(=O)Nc2ccccc21` (stereo not shown) [Synthetic Example 25, 5-methoxyspiro[furo[2,3-c]pyridine-3,3′-indol]-2′(1′H)-one], the melting point lay within 231 to 232 °C.

Consider `COc1cc2c(cn1)OCC21C(=O)N(CC2CCOCC2)c2ccccc21` (stereo not shown) [Synthetic Example 26, 5-methoxy-1′-(tetrahydro-2H-pyran-4-ylmethyl)spiro[furo[2,3-c]pyridine-3,3′-indol]-2′(1′H)-one], for which the melting point lay within 84 to 85 °C.

Consider `NC1=N[C@H](O)[C@H]2[C@H]3O[C@]4(O)O[C@@H]([C@@H](O)[C@@]2(N1)[C@@H]4O)[C@]3(O)CO` [TTX, tetrodotoxin], for which the “block of [14C] guanidine influx” value was “TTX partially blocked influx” at SK-N-BE2C (NaV1.8); “Guanidine influx was completely” on PC12 (Nav1.2); “partially blocked by TTX (Nav1.5” in the data set on L6 (Nav1.4 and 1.5); “Guanidine influx was completely” with CHO-K1 (Nav1.4).
